Assay results as given in US8653258B2, “Compositions for regulating or modulating quorum sensing in bacteria, methods of using the compounds, and methods of regulating or modulating quorum sensing in bacteria” (Georgia State University Research Foundation, Inc., priority 2007, dated 2014).
“And” between values parts separate entries of the source, which are not always exact repeats. Identical values can stand only once. Like-named read-outs stand apart in the source and are kept apart here.

Legend:
[1] = system: AI-2-mediated gene expressions; settings: at about 323 μM; cited from earlier work
[2] = system: AI-2-mediated quorum sensing; assay: microbe, parasite or virus in culture; format: cell-based, Vibrio harveyi; settings: tested at least 3 times
Procedure: The candidate compounds identified as described in Example 1, above, were tested for their ability to inhibit AI-2 induced quorum sensing using the MM32 strain of V. harveyi. […] The V. harveyi bacteria can also emit luminescence upon AI-2 induced quorum sensing stimulation. Therefore, the ability of the “virtually” identified compounds to inhibit luminescence production in the presence of DPD and boric acid was examined.
MM32 bacteria were streak-seeded on fresh LM plates and cultured in the presence of kanamycin (50 μg/mL) and chloramphenicol (10 μg/mL). Colonies appeared after overnight incubation at 30° C. A single colony was picked up from the LM plate. This strain was grown for 16 hrs with aeration at 175 r.p.m and at 30° C. in 2 mL of Autoinducer Bioassay (AB) medium with antibiotics (kanamycin 50 μg/mL and chloramphenicol 10 μg/mL). The culture was then diluted to an OD600 0.7. This preinoculum was grown in AB-Fe medium with 1.2 mM of iron to OD600 1.0-1.1. The resulting inoculum culture was then diluted 5000-fold in fresh AB medium.
Solutions of the test compounds in AB medium were prepared in 96-well plates. To these solutions, freshly synthesized DPD (pH=7) solution was added for a final concentration of 5 μM. Boric acid was added to give a final concentration of 1 mM. After the addition of bacteria in AB medium, the micro plates were covered with a non-toxic plate sealer and incubated at 30° C. with aeration for 3-4 hrs.
In an initial round of screening, the concentration of the test compounds was fixed at 100 μg/mL (about 200-600 μM).

[3] = system: V. harveyi; assay: Bacterial growth curves (doubling time); format: cell-based, Vibrio harveyi
Text: To make sure that the observed luminescence intensity changes were not due to inhibition of bacterial growth, the effect of these boronic acids on bacterial growth was also studied.

[4] = system: cysteines in protein; settings: read-out: EC50, covalent modification of cysteines in protein; cited from earlier work
[5] = V. harveyi MM32, DPD 5 μM, boric acid 1 mM, read-out: IC50 value, inhibition of AI-2-mediated quorum sensing (V. harveyi luminescence)
[6] = compound at 125 μM, control 79.4 min
[7] = Vibrio harveyi, read-out: IC50 value, inhibition of AI-2-mediated quorum sensing (V. harveyi luminescence), V. harveyi MM32, DPD 5 μM, boric acid 1 mM

SMILES	IC50 [2, 7] [µM]	other results
CCCCC1=C(Br)/C(=C/Br)OC1=O [(5Z)-4-bromo-5-(bromomethylene)-3-butyl-2(5H)-furanone]	–	inhibition of AI-2-mediated gene expressions [1]: inhibit many AI-2-mediated gene expressions
OB(O)c1cncc2ccccc12 [Compound 4-IQBA]	–	IC50 [2, 5]: 66 µM and 66.1 µM; doubling time [3, 6]: 80.4 min
OB(O)c1cccc2cnccc12 [Compound 5-IQBA]	–	IC50 [2, 5]: 30 µM and 30.4 µM; doubling time [3, 6]: 99.2 min
CC(C)OC(=S)CS(=O)(=O)c1ccccc1 [Compound 23]	33 ± 4	–
Oc1cccc(O)c1O [Compound 61, pyrogallol]	2	effect on bacterial growth [3]: not due to growth inhibition; doubling time ([3]; compound at 5 μM, control 78.9 min): 78.4 min
c1ccc2c(c1)Nc1ccccc1S2 [Compound 62, phenothiazine]	10	IC50 ([2]; read-out: IC50 value, inhibition of AI-2-mediated quorum sensing (V. harveyi luminescence), V. harveyi MM32, DPD 5 μM, boric acid 1 mM): 10.7 ± 3.7 µM; effect on bacterial growth [3]: not due to growth inhibition; doubling time ([3]; compound at 20 μM, control 78.9 min): 72.3 min
Oc1ccccc1O [Compound 63, catechol]	59 ± 9	–
CCOC(=S)CS(=O)(=O)c1ccc(Br)cc1 [Compound H14]	13.8 ± 2	–
CCOC(=S)CS(=O)(=O)c1ccc(OC)cc1 [Compound H18]	26 ± 3.5	–
CCOC(=O)CS(=O)(=O)c1ccc(-c2ccc3c(c2)OCCO3)cc1 [Compound H20]	157 ± 43	–
CCOC(=O)CS(=O)(=O)c1ccc(-c2ccc(C)cc2)cc1 [Compound H21]	8.2 ± 2.3	–
CCOC(=O)CS(=O)(=O)c1ccc(-c2ccc(C(N)=O)cc2)cc1 [Compound H24]	31.3 ± 23	–
CCCS(=O)(=O)CC(=S)OCC [Compound H26]	21.6 ± 2.9	–
CCOC(=O)CS(=O)(=O)c1cccc(Br)c1 [Compound H28]	162 ± 22	–
O=CC=Cc1ccccc1 [cinnamaldehyde]	–	EC50 [4]: 19 µM
